Assay results taken from patent US20230257383A1, “COMPOUND SERVING AS BTK INHIBITOR, PREPARATION METHOD THEREFOR, AND USE THEREOF” (CHENGDU HYPERWAY PHARMACEUTICALS CO., LTD., priority 2020, published 2023).
Like-named read-outs stand apart in the source and are kept apart here.

What was measured:
BT474 cell proliferation = assay: In vitro cell proliferation inhibitory activity test (CTG), BT474; assay type: cell-based; conditions: Homo sapiens, BT-474, BT474 cell proliferation
Procedure: Test Example 4: In Vitro Cell Proliferation Inhibitory Activity Test
Cells were cultured in 1640 medium, added with 10% inactivated FBS and 1% double antibiotics, and cultured at 37° C. and 5% CO2.
(1) Cells were routinely cultured until the cell density was 80%-90%, and the cells were harvested when their number reached the requirement.
(2) Cells were resuspended with corresponding culture medium, counted, and prepared into cell suspension at appropriate density.
(3) The cell suspension was added to a 96-well plate, 100 μL per well.
(4) Cells were cultured overnight in a 37° C., 5% CO2 incubator.
(1) The compounds to be tested were diluted with DMSO to make a stock solution with a final concentration of 20 mM for later use.
(2) The stock solution was diluted 10 times from 20 mM to 2 mM with DMSO, and then diluted 3 times from 2 mM to 9 concentrations.
(3) The blank control wells were cells plus 0.5% DMSO, as high-reading control wells.
(4) Wells with no cells and only medium were used as low-reading control wells.
4: Cell treatment with compound
(1) 24 h after the cells were plated, the compounds acted alone, and 99 μL of growth medium was added to each well, followed by 1 μL of the compound prepared in step 3. The plate was shaken gently to mix uniformly, and then placed in a 37° C., 5% CO2 incubator.
(2) The cell plate was placed in an incubator for 72 h.
5: Detection by CTG method
(1) The cell plate to be tested was placed at room temperature for 30 min, and 100 μL of medium was discarded from each well.
(2) 100 μL of CTG reagent (CelltiterGlo kit) was added to each well, placed on a fast shaker for 2 min, and stood at room temperature in the dark for 30 min.
(3) The chemiluminescent signal value was read with the Envision instrument.
IC50 was calculated by using GraphPad Prism 8 software. The IC50 (half inhibitory concentration) of the compound was derived using the following nonlinear fitting formula, and the results are shown in the following table:
Y=Bottom+(Top−Bottom)/(1+10^((Log IC50−X)×HillSlope))
X: log value of compound concentration, Y: inhibition rate (% inhibition)
Inhibition rate (% inhibition)=(reading of high-reading control well-reading of compound well)/(reading of high-reading control well-reading of low-reading control well)×100

[1] = Blood-brain barrier permeability test, oral, SD rats; assay type: in vivo; conditions: rat, oral 10 mg/kg single dose; for concentration at 1 h / Kp at 1 h: time point 1 h; for concentration at 2 h / Kp at 2 h: time point 2 h; for concentration at 4 h / Kp at 4 h: time point 4 h
Procedure: Test Example 6: Blood-Brain Barrier Permeability Test
Each test compound was administered orally at a single dose of 10 mg/kg to SD rats for pharmacokinetic study. Each group included 9 rats. The test compound was dissolved in 5% DMSO+10% solutol+85% saline, vortexed for 1-2 min, and ultrasonicated for 5-10 min to prepare into a colorless, transparent and clear administration solution. Animals were fasted overnight before administration. 1 h, 2 h, and 4 h after administration, three SD rats were selected from each group to take about 0.2-0.3 mL of blood through their orbit. The blood sample was placed on ice once collected, and centrifuged to separate the plasma within 15 min (centrifugation conditions: 8000 rpm, 1 min, room temperature). The collected plasma was stored at −20° C. before analysis. Immediately after blood collection, the cerebrospinal fluid and brain tissue were collected. The cerebrospinal fluid was draw out by dural puncture with a micro-sampler syringe under direct vision. Namely, about 100 μl of cerebrospinal fluid was collected with a 100 μl micro sample syringe from the rat that was anesthetized by chloral hydrate, with the head-fixed, the back hair-cut off, a transverse incision (2 cm) made at the line connecting the roots of the two ears, and the muscle layer of the neck and skull base bluntly scraped to expose the foramen magnum. The cerebrospinal fluid was stored at −20° C. before analysis. The rat then was sacrificed immediately, with its head cut off. The dissected brain tissue, with the surface capillaries peeled off, was weighed, added with 3 times the amount of cold saline, homogenized by a homogenizer for 1 min, and stored at −20° C. before analysis. 20 μL of plasma sample and brain homogenate sample was respectively added into 200 μL of working internal standard solution (the same volume of vehicle was added to the blank instead of internal standard), vortexed for 1 min, and centrifuged at 13500 rpm for 10 min. 100 μL of the supernatant was taken and analyzed by LC-MS/MS. 20 μL of the cerebrospinal fluid was added into 60 μL of working internal standard solution (the same volume of vehicle, instead of internal standard, was added to the blank), vortexed for 1 min, and centrifuged at 13500 rpm for 10 min. 50 μL of the supernatant was taken and analyzed by LC-MS/MS.

[2] = Liver microsome metabolic stability test (human); assay type: in vitro ADME; conditions: for microsomal CLint: read-out: CLint (μL/min/mg) Human
Procedure: (§1) 1: To the sample wells of T0, T5, T10, T20, T30, T60 and NCF60, 10 μL of the test or reference working solution and 80 μL of microsome working solution (hepatic microsome with a protein concentration of 0.5 mg/mL) were added, and to Blank60 well, only the microsome working solution was added. Then samples of the Blank60, T5, T10, T20, T30 and T60 other than TO and NCF60 were placed in a 37° C. water bath and pre-incubated for about 10 min.
(§2) 2: To the TO sample well, 300 μL of stop solution (containing 200 ng/mL tolbutamide and 200 ng/mL labetalol in acetonitrile solution) was added first, followed by 10 μL of NADPH regeneration system working solution.
(§3) 3: After the pre-incubation of Blank60, T5, T10, T20, T30 and T60 incubation plates, 10 μL of NADPH regeneration system working solution was added to each sample well to start the reaction, and 10 μL of 100 mM potassium phosphate buffer was added to the NCF60 sample well.
(§4) 4: After incubation for an appropriate time (such as 5, 10, 20, 30 and 60 min), to each test sample well and control well of the Blank60, T5, T10, T20, T30, T60 and NCF60 plates, 300 μL of stop solution was added to terminate the reaction.
(§5) 5: All sample plates were shaken to mix well and centrifuged at 4000 rpm for 20 min, and 100 μL of the supernatant of the test sample or control sample was taken and diluted with 300 μL of pure water for LC-MS/MS analysis.
(§6) 6: Data analysis: T1/2 and CLint(mic) (μL/min/mg) values were calculated according to the first-order elimination kinetics. The first-order elimination kinetics equation was: […]

[3] = Liver microsome metabolic stability test (rat); assay type: in vitro ADME; conditions: for microsomal CLint: read-out: CLint (μL/min/mg) Rat
Procedure: as §1, §2, §3, §4, §5, §6

[4] = brain, read-out: Drug concentration in brain tissue
[5] = brain/plasma, read-out: Brain tissue/plasma
[6] = cerebrospinal fluid, read-out: Drug concentration in cerebrospinal fluid
[7] = cerebrospinal fluid/plasma, read-out: Cerebrospinal fluid/plasma
[8] = plasma, read-out: Plasma drug concentration

SMILES | IC50 (BT474 cell proliferation) | concentration at 1 h [1, 4] | concentration at 2 h [1, 4] | concentration at 4 h [1, 4] | Kp at 1 h [1, 5] | Kp at 2 h [1, 5] | Kp at 4 h [1, 5] | concentration at 1 h [1, 6] | concentration at 2 h [1, 6] | concentration at 4 h [1, 6] | Kp at 1 h [1, 7] | Kp at 2 h [1, 7] | Kp at 4 h [1, 7] | concentration at 1 h [1, 8] | concentration at 2 h [1, 8] | concentration at 4 h [1, 8] | microsomal CLint ([2]; liver microsomes) | microsomal CLint ([3]; liver microsomes) | further results
Nc1nccn2c(C3CCC(CO)OC3)nc(-c3ccc(C(F)(F)c4ccccc4)cc3)c12 (single isomer, unassigned) [Example 111-P1] | 1550 nM | 1250 ng/g | 1070 ng/g | 787 ng/g | 0.62 | 0.67 | 0.59 | 66.2 ng/mL | 52.3 ng/mL | 41.9 ng/mL | 0.033 | 0.033 | 0.031 | 2010 ng/mL | 1580 ng/mL | 1340 ng/mL |  |  | 
Nc1nccn2c(C34CCC(CO)(CC3)OC4)nc(-c3ccc(C(F)(F)c4ccccc4)cc3)c12 [Example 125] | 340 nM | 1340 ng/g | 1170 ng/g | 1060 ng/g | 0.91 | 1.03 | 0.84 | 34.1 ng/mL | 30.4 ng/mL | 29.6 ng/mL | 0.023 | 0.027 | 0.024 | 1470 ng/mL | 1130 ng/mL | 1260 ng/mL | 14.6 µL/min/mg | 21.7 µL/min/mg | 
Nc1nccn2c(C34CCC(CO)(CC3)OC4)nc(-c3ccc(C(F)(F)c4ccccc4F)cc3)c12 [Example 145] | 40.9 nM | 643 ng/g |  | 910 ng/g | 0.39 |  | 0.53 | 59.7 ng/mL |  | 74.3 ng/mL | 0.036 |  | 0.044 | 1650 ng/mL |  | 1710 ng/mL | 22.7 µL/min/mg | 22.8 µL/min/mg | % Remaining (60 min) Human ([2]; 60 min): 46.2%; half-life ([2]; liver microsomes, 0.5 mg/mL protein, read-out: T1/2 (min) Human): 61.2 min; % Remaining (60 min) Rat ([3]; 60 min): 49.6%; half-life ([3]; liver microsomes, 0.5 mg/mL protein, read-out: T1/2 (min) Rat): 60.8 min
Nc1nccn2c(C34CCC(CO)(CC3)OC4)nc(-c3ccc(C(F)(F)c4cccc(Cl)c4F)cc3)c12 [Example 152] | 65.5 nM | 288 ng/g | 378 ng/g | 232 ng/g | 0.27 | 0.39 | 0.32 | 187 ng/mL | 227 ng/mL | 181 ng/mL | 0.18 | 0.24 | 0.25 | 1060 ng/mL | 961 ng/mL | 715 ng/mL | 45.9 µL/min/mg | 102 µL/min/mg | 
Nc1nccn2c(C34CCC(CO)(CC3)OC4)nc(-c3ccc(C(F)(F)c4ccccc4Cl)cc3)c12 [Example 155] | 46.4 nM | 1520 ng/g | 1860 ng/g | 1260 ng/g | 1.21 | 1.3 | 1.19 | 292 ng/mL | 374 ng/mL | 220 ng/mL | 0.23 | 0.26 | 0.21 | 1250 ng/mL | 1430 ng/mL | 1060 ng/mL | 41.7 µL/min/mg | 62.2 µL/min/mg | 
Cc1cc(Nc2ncnc3ccc(NC4=NC(C)(C)CO4)cc23)ccc1Oc1ccn2ncnc2c1 [Tucatinib, reference compound] | 30.2 nM | 26.5 ng/g | 29.5 ng/g | 24.5 ng/g | 0.013 | 0.015 | 0.013 | 19.2 ng/mL | 10.4 ng/mL | 14.9 ng/mL | 0.009 | 0.005 | 0.008 | 2030 ng/mL | 1940 ng/mL | 1900 ng/mL | 43.7 µL/min/mg | 34.9 µL/min/mg | 
